According to PubChem BioAssay (NCI):
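Five concentrations, 48 hours, 96-well plates. At the GI50, growth is halved. Definition used: TGI = concentration required for complete inhibition of growth.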

Tests used:
Test in all cases: NCI-60 cell line screen, 48 h; in the data active = GI50 below about 0.43 µM; inactive = the rest
NCI-H460 lung = system: NCI-H460 lung
LOX IMVI melanoma = system: LOX IMVI melanoma
SK-MEL-2 melanoma = system: SK-MEL-2 melanoma
HCT-15 colon = system: HCT-15 colon
MDA-MB-231 breast = system: MDA-MB-231 breast
OVCAR-3 ovarian = system: OVCAR-3 ovarian
ACHN renal = system: ACHN renal
SK-MEL-5 melanoma = system: SK-MEL-5 melanoma
SK-MEL-28 melanoma = system: SK-MEL-28 melanoma
MCF7 breast = system: MCF7 breast
OVCAR-4 ovarian = system: OVCAR-4 ovarian
MDA-MB-435 = system: MDA-MB-435
HOP-62 NSCLC = system: HOP-62 NSCLC
EKVX NSCLC = system: EKVX NSCLC
PC-3 prostate = system: PC-3 prostate
HS 578T breast = system: HS 578T breast
UACC-257 melanoma = system: UACC-257 melanoma
RPMI-8226 leukemia = system: RPMI-8226 leukemia
OVCAR-8 ovarian = system: OVCAR-8 ovarian
TK-10 renal = system: TK-10 renal
SN12C renal = system: SN12C renal
HCC-2998 colon = system: HCC-2998 colon
SF-539 CNS = system: SF-539 CNS
KM12 colon = system: KM12 colon
NCI-H226 lung = system: NCI-H226 lung
SF-268 CNS = system: SF-268 CNS
SNB-75 CNS = system: SNB-75 CNS
SF-295 CNS = system: SF-295 CNS
NCI/ADR-RES ovarian = system: NCI/ADR-RES ovarian
DU-145 prostate = system: DU-145 prostate
SW-620 colon = system: SW-620 colon
U251 CNS = system: U251 CNS
NCI-H23 lung = system: NCI-H23 lung
786-0 renal = system: 786-0 renal
SNB-19 CNS = system: SNB-19 CNS
A498 renal = system: A498 renal
CAKI-1 renal = system: CAKI-1 renal
CCRF-CEM leukemia = system: CCRF-CEM leukemia
A549 NSCLC = system: A549 NSCLC
T-47D breast = system: T-47D breast
COLO 205 colon = system: COLO 205 colon
OVCAR-5 ovarian = system: OVCAR-5 ovarian
RXF 393 renal = system: RXF 393 renal
K-562 leukemia = system: K-562 leukemia
UO-31 renal = system: UO-31 renal
UACC-62 melanoma = system: UACC-62 melanoma
BT-549 breast = system: BT-549 breast
MALME-3M melanoma = system: MALME-3M melanoma
SK-OV-3 ovarian = system: SK-OV-3 ovarian
MOLT-4 leukemia = system: MOLT-4 leukemia
SR leukemia = system: SR leukemia
IGROV1 ovarian = system: IGROV1 ovarian
HL-60(TB) leukemia = system: HL-60(TB) leukemia
HOP-92 NSCLC = system: HOP-92 NSCLC
HCT-116 colon = system: HCT-116 colon
HT29 colon = system: HT29 colon
NCI-H522 lung = system: NCI-H522 lung

N#C/C(=C\c1ccc(Br)cc1)n1nnc2cccc(F)c21
3.45 µM: TGI (NCI-H226 lung)
3.97 µM: TGI (SK-MEL-28 melanoma)
3.35 µM: TGI (SNB-19 CNS)
3450 nM: TGI (SF-539 CNS)
3.07 µM: TGI (NCI-H23 lung)
3.02 µM: TGI (EKVX NSCLC)
2720 nM: TGI (UO-31 renal)
3.49 µM: TGI (OVCAR-4 ovarian)
4.99 µM: TGI (CAKI-1 renal)
3.31 µM: TGI (KM12 colon)
3.17 µM: TGI (PC-3 prostate)
13.6 µM: TGI (OVCAR-8 ovarian)
5.02 µM: TGI (COLO 205 colon)
2750 nM: TGI (SK-MEL-5 melanoma)
4.44 µM: TGI (T-47D breast)
13.2 µM: TGI (A549 NSCLC)
3.48 µM: TGI (ACHN renal) | TGI (OVCAR-5 ovarian)
1890 nM: TGI (HCT-15 colon)
5.14 µM: TGI (SK-MEL-2 melanoma)
1920 nM: TGI (LOX IMVI melanoma)
2.15 µM: TGI (OVCAR-3 ovarian)
2190 nM: TGI (NCI/ADR-RES ovarian)
inactive: GI50 (NCI-H460 lung) 1970 nM | GI50 (LOX IMVI melanoma) 614 nM | GI50 (SK-MEL-2 melanoma) 1960 nM | GI50 (HCT-15 colon) 478 nM | GI50 (MDA-MB-231 breast) 1630 nM | GI50 (OVCAR-3 ovarian) 861 nM | GI50 (ACHN renal) 1410 nM | GI50 (SK-MEL-5 melanoma) 1410 nM | GI50 (SK-MEL-28 melanoma) 1.87 µM | GI50 (MCF7 breast) 445 nM | GI50 (OVCAR-4 ovarian) 1650 nM | GI50 (HOP-62 NSCLC) 2380 nM | GI50 (EKVX NSCLC) 1620 nM | GI50 (PC-3 prostate) 943 nM | GI50 (HS 578T breast) 2500 nM | GI50 (UACC-257 melanoma) 1860 nM | GI50 (OVCAR-8 ovarian) 2590 nM | GI50 (TK-10 renal) 1910 nM | GI50 (SN12C renal) 1550 nM | GI50 (HCC-2998 colon) 1560 nM | GI50 (SF-539 CNS) 1860 nM | GI50 (KM12 colon) 1510 nM | GI50 (NCI-H226 lung) 1570 nM | GI50 (SF-268 CNS) 1730 nM | GI50 (SNB-75 CNS) 1410 nM | GI50 (SF-295 CNS) 1920 nM | GI50 (DU-145 prostate) 1510 nM | GI50 (SW-620 colon) 475 nM | GI50 (U251 CNS) 1550 nM | GI50 (NCI-H23 lung) 1430 nM | GI50 (786-0 renal) 1480 nM | GI50 (SNB-19 CNS) 1630 nM | GI50 (A498 renal) 2040 nM | GI50 (CAKI-1 renal) 2050 nM | GI50 (CCRF-CEM leukemia) 444 nM | GI50 (A549 NSCLC) 2800 nM | GI50 (T-47D breast) 1080 nM | GI50 (COLO 205 colon) 1980 nM | GI50 (OVCAR-5 ovarian) 1770 nM | GI50 (RXF 393 renal) 1080 nM | GI50 (UO-31 renal) 1410 nM | GI50 (UACC-62 melanoma) 1350 nM | GI50 (BT-549 breast) 1450 nM
4.25 µM: TGI (RPMI-8226 leukemia)
2640 nM: TGI (RXF 393 renal)
active: GI50 (MDA-MB-435) 295 nM | GI50 (RPMI-8226 leukemia) 416 nM | GI50 (NCI/ADR-RES ovarian) 398 nM | GI50 (K-562 leukemia) 386 nM
913 nM: TGI (MDA-MB-435)
3.51 µM: TGI (SF-268 CNS)
5.43 µM: TGI (UACC-257 melanoma)
3.55 µM: TGI (TK-10 renal)
2850 nM: TGI (DU-145 prostate)
4.21 µM: TGI (NCI-H460 lung)
3.88 µM: TGI (SF-295 CNS)
3.13 µM: TGI (HCC-2998 colon)
3.14 µM: TGI (SN12C renal)
3.06 µM: TGI (U251 CNS)
> 100 µM: TGI (CCRF-CEM leukemia) | TGI (K-562 leukemia)
3.1 µM: TGI (BT-549 breast)
4230 nM: TGI (A498 renal)
2930 nM: TGI (786-0 renal)
8.14 µM: TGI (HS 578T breast)
2.87 µM: TGI (SNB-75 CNS)
1940 nM: TGI (SW-620 colon)
3.46 µM: TGI (MDA-MB-231 breast) | TGI (UACC-62 melanoma)
1980 nM: TGI (MCF7 breast)
8.49 µM: TGI (HOP-62 NSCLC)

Cc1ccc(N=C2CSc3nnc(-c4csc5c4CCCC5)n3N2)cc1
17.2 µM: TGI (SNB-75 CNS)
40.2 µM: TGI (HS 578T breast)
237 nM: TGI (MDA-MB-435)
> 50 µM: TGI (NCI-H460 lung) | TGI (MALME-3M melanoma) | TGI (SK-OV-3 ovarian) | TGI (MOLT-4 leukemia) | TGI (SK-MEL-2 melanoma) | TGI (MDA-MB-231 breast) | TGI (ACHN renal) | TGI (SR leukemia) | TGI (SK-MEL-28 melanoma) | TGI (OVCAR-4 ovarian) | TGI (IGROV1 ovarian) | TGI (HOP-62 NSCLC) | TGI (EKVX NSCLC) | TGI (PC-3 prostate) | TGI (UACC-257 melanoma) | TGI (RPMI-8226 leukemia) | TGI (OVCAR-8 ovarian) | TGI (TK-10 renal) | TGI (SN12C renal) | TGI (HCC-2998 colon) | TGI (KM12 colon) | TGI (NCI-H226 lung) | TGI (SF-268 CNS) | TGI (HOP-92 NSCLC) | TGI (U251 CNS) | TGI (NCI-H23 lung) | TGI (SNB-19 CNS) | TGI (CCRF-CEM leukemia) | TGI (HCT-116 colon) | TGI (A549 NSCLC) | TGI (HT29 colon) | TGI (COLO 205 colon) | TGI (OVCAR-5 ovarian) | TGI (K-562 leukemia) | TGI (UACC-62 melanoma) | TGI (BT-549 breast)
473 nM: TGI (SF-539 CNS)
inactive: GI50 (MALME-3M melanoma) 26.5 µM | GI50 (ACHN renal) 2940 nM | GI50 (SK-MEL-28 melanoma) 8.24 µM | GI50 (OVCAR-4 ovarian) > 50000 nM | GI50 (IGROV1 ovarian) 446 nM | GI50 (UACC-257 melanoma) > 50000 nM | GI50 (TK-10 renal) > 50000 nM | GI50 (HCC-2998 colon) 1310 nM | GI50 (NCI-H226 lung) > 50000 nM | GI50 (SF-268 CNS) 561 nM | GI50 (HOP-92 NSCLC) 1970 nM | GI50 (OVCAR-5 ovarian) 932 nM | GI50 (UO-31 renal) 430 nM | GI50 (BT-549 breast) 458 nM
7.75 µM: TGI (OVCAR-3 ovarian)
14 µM: TGI (SF-295 CNS)
432 nM: TGI (NCI-H522 lung)
active: GI50 (NCI-H460 lung) 181 nM | GI50 (LOX IMVI melanoma) 302 nM | GI50 (SK-OV-3 ovarian) 271 nM | GI50 (MOLT-4 leukemia) 213 nM | GI50 (SK-MEL-2 melanoma) 221 nM | GI50 (HCT-15 colon) 227 nM | GI50 (MDA-MB-231 breast) 369 nM | GI50 (OVCAR-3 ovarian) 162 nM | GI50 (SR leukemia) 179 nM | GI50 (SK-MEL-5 melanoma) 175 nM | GI50 (MCF7 breast) 165 nM | GI50 (MDA-MB-435) 89.4 nM | GI50 (HOP-62 NSCLC) 240 nM | GI50 (EKVX NSCLC) 209 nM | GI50 (HL-60(TB) leukemia) 120 nM | GI50 (PC-3 prostate) 270 nM | GI50 (HS 578T breast) 168 nM | GI50 (RPMI-8226 leukemia) 203 nM | GI50 (OVCAR-8 ovarian) 223 nM | GI50 (SN12C renal) 406 nM | GI50 (SF-539 CNS) 131 nM | GI50 (KM12 colon) 226 nM | GI50 (SNB-75 CNS) 130 nM | GI50 (SF-295 CNS) 148 nM | GI50 (NCI/ADR-RES ovarian) 167 nM | GI50 (DU-145 prostate) 209 nM | GI50 (SW-620 colon) 204 nM | GI50 (U251 CNS) 200 nM | GI50 (NCI-H23 lung) 295 nM | GI50 (786-0 renal) 297 nM | GI50 (SNB-19 CNS) 222 nM | GI50 (A498 renal) 98.8 nM | GI50 (CCRF-CEM leukemia) 158 nM | GI50 (HCT-116 colon) 225 nM | GI50 (A549 NSCLC) 265 nM | GI50 (HT29 colon) 175 nM | GI50 (COLO 205 colon) 191 nM | GI50 (RXF 393 renal) 162 nM | GI50 (K-562 leukemia) 156 nM | GI50 (UACC-62 melanoma) 277 nM | GI50 (NCI-H522 lung) 114 nM
298 nM: TGI (HL-60(TB) leukemia)
412 nM: TGI (A498 renal)
> 50000 nM: TGI (LOX IMVI melanoma) | TGI (HCT-15 colon) | TGI (SK-MEL-5 melanoma) | TGI (MCF7 breast) | TGI (NCI/ADR-RES ovarian) | TGI (DU-145 prostate) | TGI (SW-620 colon) | TGI (786-0 renal) | TGI (RXF 393 renal) | TGI (UO-31 renal)
